In patent publication US20250032573A1, “IMMUNITY-ENHANCING PEPTIDE ANALOGS AND USES THEREOF” (RESEARCH & BUSINESS FOUNDATION SUNGKYUNKWAN UNIVERSITY, priority 2023, published 2025):
Numbered stars: 1 amine (or outer) side, 2 acyl side, 3 side chain; on linkers, the order of the positions; unused ones are H or OH. Square brackets hold non-standard residues; d marks the D form. Peptide text beside a SMILES is read from it. Gly(N-4-hydroxybenzyl) = O=C(O)CNCc1ccc(O)cc1; X1 = CSCCN(CC(=O)[*:2])[*:1]; Nlys = NCCCCNCC(=O)O

How the values were obtained:
【FIG 16】 = assay: 【FIG 16】
Excerpt: Table printed on a drawing sheet, 【FIG 16】

neutrophils [1] = assay: Superoxide anion (ROS) production in neutrophils; type: cell-based
Procedure: The effect of superoxide anion production in neutrophils by the peptoid-comprising analogs in which a peptoid residue was substituted for K, Y, and M in the structure of WKYMVm was measured.

neutrophils [2] = assay: Degranulation activity of neutrophils (beta-hexosaminidase activity); type: cell-based
Procedure: The degranulation activity of neutrophils by the analogs in which each amino acid in the structure of WKYMVm was substituted with a β-amino acid was compared and analyzed by measuring beta-hexosaminidase activity.
The degranulation activity of neutrophils by the peptoid-containing analogs in which a peptoid residue was substituted for K, Y, and M in the structure of WKYMVm was measured.

FIG. 17 = assay: FIG. 17
Excerpt: Table printed on a drawing sheet, FIG. 17

neutrophils [3] = tested on: neutrophils
[4] = Degradation half-life in human liver S9 fraction (HPLC); type: in vitro ADME
Procedure: To measure the ex vivo stability of the eight analogs comprising a β^3-amino acid residue, the degradation half-life of each analog was measured in a human liver S9 fraction. The degradation half-life was measured by culturing the peptide and serum together at 37° C. and measuring the degree to which the compound was reduced using HPLC at each hour.
The ex vivo stability of the analogs to which a peptoid residue was introduced was measured using the same method as the stability measurement method for the analogs comprising a β-amino acid residue. […] On the other hand, it was confirmed that K peptoid, KY peptoid, and KM peptoid had very high stability so that more than half of them was not degraded even after 24 hours (FIG. 17).

FPR1 = FPR1 (Homo sapiens, UniProt P21462); assay: cell-based; conditions: for increase in intracellular calcium ions through activation of FPR1 (in words): FPR1-expressing RBL-2H3 cell line
FPR1, sequence (P21462 whole entry): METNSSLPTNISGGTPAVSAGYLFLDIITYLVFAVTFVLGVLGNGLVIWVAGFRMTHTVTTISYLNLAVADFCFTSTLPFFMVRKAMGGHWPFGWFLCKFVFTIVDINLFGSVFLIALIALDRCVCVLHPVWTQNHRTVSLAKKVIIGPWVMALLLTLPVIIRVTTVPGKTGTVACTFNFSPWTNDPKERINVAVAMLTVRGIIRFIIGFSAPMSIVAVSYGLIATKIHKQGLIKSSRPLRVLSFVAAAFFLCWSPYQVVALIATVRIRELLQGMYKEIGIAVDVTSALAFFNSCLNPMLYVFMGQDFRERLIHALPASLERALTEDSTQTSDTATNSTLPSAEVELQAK
Procedure: To investigate whether activation of FPR1, which is important in regulating the activity of innate immune cells, is induced by the WKYMVm peptide analogs, changes in calcium ions were measured in RBL-2H3 cell line, a type of mast cell that artificially expressed FPR1. […] On the other hand, an increase in intracellular calcium ions by WKYMVβm (V is a β-amino acid) through activation of FPR1 was not observed.

neutrophils [5] = assay: Neutrophil chemotaxis assay using a Boyden chamber; type: cell-based; conditions: for chemotactic migration of neutrophils: from 1 nM or 10 nM to 1 μM
Procedure: To investigate the effect of the WKYMVm peptide analogs on the regulation of immune cell mobility, which a representative function of FPR, a chemotaxis assay was performed using a Boyden chamber.
To measure the in vitro innate immune activity of four peptides comprising one non-natural β^3-amino acid residue, the effect of enhancing neutrophil mobility was measured.

FPR2 = FPR2 (Homo sapiens, UniProt P25090); assay: cell-based; conditions: for increase in intracellular calcium ions through activation of FPR2 (in words): FPR2-expressing RBL-2H3 cell line
FPR2, sequence (P25090 whole entry): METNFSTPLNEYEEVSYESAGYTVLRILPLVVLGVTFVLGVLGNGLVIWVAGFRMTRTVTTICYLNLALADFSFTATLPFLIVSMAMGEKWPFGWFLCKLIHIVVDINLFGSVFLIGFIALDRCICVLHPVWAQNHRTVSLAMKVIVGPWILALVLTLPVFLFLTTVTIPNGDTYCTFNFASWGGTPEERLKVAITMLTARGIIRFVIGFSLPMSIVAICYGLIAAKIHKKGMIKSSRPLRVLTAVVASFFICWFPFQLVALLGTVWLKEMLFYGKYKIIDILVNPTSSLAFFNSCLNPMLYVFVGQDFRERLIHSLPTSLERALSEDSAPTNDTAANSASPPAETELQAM
Procedure: To investigate whether activation of FPR2 is induced by the WKYMVm peptide analogs, changes in calcium ions were measured in RBL-2H3 cell line that artificially expressed FPR2.

[6] = human liver S9 fraction, 37° C., 24-hour measurement period, read-out: degradation half-life
[7] = human liver S9 fraction, 37° C.

WKYMβVm (βM)
Half-Life (【FIG 16】): 2.4 h

CSCC[C@H](NC(=O)CN(Cc1ccc(O)cc1)C(=O)[C@H](CCCCN)NC(=O)[C@@H](N)Cc1c[nH]c2ccccc12)C(=O)N[C@H](C(=O)N[C@H](CCSC)C(N)=O)C(C)C [Y peptoid] (H-WK[Gly(N-4-hydroxybenzyl)]MV[dM]-NH2)
superoxide anion production in neutrophils (neutrophils [1]): effectively promote superoxide anion production
degranulation activity of neutrophils (neutrophils [2]): promoted the degranulation activity of neutrophils to the extent similar to the WKYMVm peptide
Half-Life (FIG. 17): 1.1 h

CSCC[C@@H](CC(=O)N[C@H](C(=O)N[C@H](CCSC)C(N)=O)C(C)C)NC(=O)C[C@H](Cc1ccc(O)cc1)NC(=O)C[C@H](CCCCN)NC(=O)[C@@H](N)Cc1c[nH]c2ccccc12 [WKβYβMβVm]
superoxide anion production in neutrophils (neutrophils [1]): did not induce superoxide anion production
degranulation activity of neutrophils (neutrophils [2]): did not induce the degranulation activity of neutrophils
calcium ion-increasing effect in neutrophils (neutrophils [3]): highly induced
Half-Life [4, 6]: > 24 h

WKYβMVm (βY)
Half-Life (【FIG 16】): 2.1 h

WKβYMβVm (βKβM)
Half-Life (【FIG 16】): 8.7 h

CSCC[C@@H](CC(=O)N[C@H](C(=O)N[C@H](CCSC)C(N)=O)C(C)C)NC(=O)[C@H](Cc1ccc(O)cc1)NC(=O)[C@H](CCCCN)NC(=O)[C@@H](N)Cc1c[nH]c2ccccc12 [WKYMβVm]
superoxide anion production in neutrophils (neutrophils [1]): induce superoxide anion production very effectively to a similar extent as the WKYMVm peptide
EC50 (FPR1): 431 nM
increase in intracellular calcium ions through activation of FPR1 (in words) (FPR1): increase in calcium ions in a concentration-dependent manner was also observed
degranulation activity of neutrophils (neutrophils [2]): induced the degranulation activity of neutrophils very effectively to a similar extent as the WKYMVm peptide
calcium ion-increasing effect in neutrophils (neutrophils [3]): highly induced
chemotactic migration of neutrophils (neutrophils [5]): effectively induce chemotactic migration of neutrophils in a concentration-dependent manner
degradation half-life / ex vivo stability compared to the WKYMVm peptide (in words) [4, 7]: half-life similar to that of the WKYMVm peptide
EC50 (FPR2): 14 nM
increase in intracellular calcium ions through activation of FPR2 (in words) (FPR2): increase in calcium ions in a concentration-dependent manner was observed

CSCC[C@@H](CC(=O)N[C@H](C(=O)N[C@H](CCSC)C(N)=O)C(C)C)NC(=O)[C@H](Cc1ccc(O)cc1)NC(=O)C[C@H](CCCCN)NC(=O)[C@@H](N)Cc1c[nH]c2ccccc12 [WKβYMβVm]
superoxide anion production in neutrophils (neutrophils [1]): effectively promoted superoxide anion production
degranulation activity of neutrophils (neutrophils [2]): effectively promoted the degranulation activity of neutrophils
calcium ion-increasing effect in neutrophils (neutrophils [3]): highly induced
effect of enhancing neutrophil mobility, compared with the WKYMVm peptide (neutrophils [5]): maintained similar activity to the WKYMVm peptide
degradation half-life / ex vivo stability compared to the WKYMVm peptide (in words) [4, 7]: improved ex vivo stability
half-life increase compared to the WKYMVm peptide [4, 7]: about 3.3 times

CSCC[C@@H](NC(=O)[C@@H](NC(=O)CN(CCSC)C(=O)[C@H](Cc1ccc(O)cc1)NC(=O)CN(CCCCN)C(=O)[C@@H](N)Cc1c[nH]c2ccccc12)C(C)C)C(N)=O [KM peptoid] (H-W[Nlys]Y[X1]V[dM]-NH2)
Half-Life ([4]; human, s9): > 24 h

CSCC[C@@H](CC(=O)N[C@H](C(=O)N[C@H](CCSC)C(N)=O)C(C)C)NC(=O)C[C@H](Cc1ccc(O)cc1)NC(=O)[C@H](CCCCN)NC(=O)[C@@H](N)Cc1c[nH]c2ccccc12 [WKYβMβVm]
superoxide anion production in neutrophils (neutrophils [1]): effectively promoted superoxide anion production
degranulation activity of neutrophils (neutrophils [2]): effectively promoted the degranulation activity of neutrophils
calcium ion-increasing effect in neutrophils (neutrophils [3]): highly induced
effect of enhancing neutrophil mobility, compared with the WKYMVm peptide (neutrophils [5]): maintained similar activity to the WKYMVm peptide
degradation half-life / ex vivo stability compared to the WKYMVm peptide (in words) [4, 7]: improved ex vivo stability

CSCC[C@H](NC(=O)C[C@H](Cc1ccc(O)cc1)NC(=O)[C@H](CCCCN)NC(=O)[C@@H](N)Cc1c[nH]c2ccccc12)C(=O)N[C@H](C(=O)N[C@H](CCSC)C(N)=O)C(C)C [WKYβMVm]
superoxide anion production in neutrophils (neutrophils [1]): induce superoxide anion production very effectively to a similar extent as the WKYMVm peptide
EC50 (FPR1): 754 nM
increase in intracellular calcium ions through activation of FPR1 (in words) (FPR1): increase in calcium ions in a concentration-dependent manner was also observed
degranulation activity of neutrophils (neutrophils [2]): induced the degranulation activity of neutrophils very effectively to a similar extent as the WKYMVm peptide
calcium ion-increasing effect in neutrophils (neutrophils [3]): highly induced
chemotactic migration of neutrophils (neutrophils [5]): effectively induce chemotactic migration of neutrophils in a concentration-dependent manner
degradation half-life / ex vivo stability compared to the WKYMVm peptide (in words) [4, 7]: half-life similar to that of the WKYMVm peptide
EC50 (FPR2): 13.9 nM
increase in intracellular calcium ions through activation of FPR2 (in words) (FPR2): increase in calcium ions in a concentration-dependent manner was observed

CSCC[C@H](NC(=O)[C@H](Cc1ccc(O)cc1)NC(=O)CN(CCCCN)C(=O)[C@@H](N)Cc1c[nH]c2ccccc12)C(=O)N[C@H](C(=O)N[C@H](CCSC)C(N)=O)C(C)C [K peptoid]
superoxide anion production in neutrophils (neutrophils [1]): effectively promote superoxide anion production
degranulation activity of neutrophils (neutrophils [2]): promoted the degranulation activity of neutrophils to the extent similar to the WKYMVm peptide
Half-Life [4, 6]: > 24 h

CSCC[C@H](NC(=O)C[C@H](Cc1ccc(O)cc1)NC(=O)C[C@H](CCCCN)NC(=O)[C@@H](N)Cc1c[nH]c2ccccc12)C(=O)N[C@H](C(=O)N[C@H](CCSC)C(N)=O)C(C)C [WKβYβMVm]
superoxide anion production in neutrophils (neutrophils [1]): effectively promoted superoxide anion production
EC50 (FPR1): 2440 nM
increase in intracellular calcium ions through activation of FPR1 (in words) (FPR1): activated
degranulation activity of neutrophils (neutrophils [2]): effectively promoted the degranulation activity of neutrophils
calcium ion-increasing effect in neutrophils (neutrophils [3]): highly induced
effect of enhancing neutrophil mobility, compared with the WKYMVm peptide (neutrophils [5]): slight decrease in activity
EC50 (FPR2): 77.3 nM
increase in intracellular calcium ions through activation of FPR2 (in words) (FPR2): activated

CSCC[C@H](NC(=O)CN(Cc1ccc(O)cc1)C(=O)CN(CCCCN)C(=O)[C@@H](N)Cc1c[nH]c2ccccc12)C(=O)N[C@H](C(=O)N[C@H](CCSC)C(N)=O)C(C)C [KY peptoid] (H-W[Nlys][Gly(N-4-hydroxybenzyl)]MV[dM]-NH2)
Half-Life ([4]; human, s9): > 24 h

WKβYMVm (βK)
Half-Life (【FIG 16】): 4.9 h

CSCC[C@H](NC(=O)[C@H](Cc1ccc(O)cc1)NC(=O)C[C@H](CCCCN)NC(=O)[C@@H](N)Cc1c[nH]c2ccccc12)C(=O)N[C@H](C(=O)N[C@H](CCSC)C(N)=O)C(C)C [WKβYMVm]
superoxide anion production in neutrophils (neutrophils [1]): induce superoxide anion production very effectively to a similar extent as the WKYMVm peptide
EC50 (FPR1): 261 nM
increase in intracellular calcium ions through activation of FPR1 (in words) (FPR1): increase in intracellular calcium ions was induced
degranulation activity of neutrophils (neutrophils [2]): induced the degranulation activity of neutrophils very effectively to a similar extent as the WKYMVm peptide
calcium ion-increasing effect in neutrophils (neutrophils [3]): highly induced
chemotactic migration of neutrophils (neutrophils [5]): effectively induce chemotactic migration of neutrophils in a concentration-dependent manner
half-life increase compared to the WKYMVm peptide [4, 7]: about 1.9 times
increase in intracellular calcium ions through activation of FPR2 (in words) (FPR2): increase in calcium ions in a concentration-dependent manner was observed
